Experiments:
GDC-0623 = compound: O=C(NOCCO)c1ccc2cncn2c1Nc1ccc(I)cc1F [GDC-0623]; assay: absolute IC70 (antiproliferative, propidium iodide); higher = less potent; conditions: exposure time: 4 days
Experimental: (§1)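 Modified propidium iodide survival/proliferation assay in 294 human tumor cell lines (2D monolayer for solid tumors, suspension for hematologic lines) after 4 days of continuous exposure to 10 concentrations in half-log steps from 0.001 to 30 µM. Absolute IC70 was fitted by four-parameter nonlinear regression of T/C × 100 (%) values; 30 µM is the top dose.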

[1] = compound: CCNC(=O)C#Cc1ccc2c(C(=Nc3ccc(CN(C)C)cc3)c3ccccc3)c(O)[nH]c2c1; assay: as above; conditions: exposure time: 4 days
Experimental: as §1

Test System	absolute IC70 (GDC-0623) [nM]	absolute IC70 [1] [nM]
HNXF_1853	451	641
SF268	> 30000	1330
LXFL_1674	> 30000	1050
IGROV-1	> 30000	1870
RAJI	> 30000	4790
DoTc2-4510	> 30000	260
NCI-H69	> 30000	1340
SK-UT-1B	5790	1400
A-253	> 30000	> 30000
SN12C	2960	665
LXFE_66	> 30000	3910
HCC33	> 30000	2050
RD-ES	> 30000	77
NCI-H345	> 30000	11800
SNU-620	> 30000	225
MOLM-1	> 30000	1590
HPAC	> 30000	120
MIA-PaCa-2	5	103
CNXF_498	> 30000	5620
RT112	> 30000	42
22RV1	> 30000	616
CAL-33	517	346
H-MESO-1	> 30000	5670
MV4-11	1320	8

Test System	absolute IC70 (GDC-0623) [nM]	absolute IC70 [1] [nM]
HT-1080	279	710
KG-1	25100	33
NCI-H1975	> 30000	409
CXF_1103	427	11
KCL-22	> 30000	250
SNU-449	2220	3200
MEXF_1341	26	482
MEXF_520	5400	99
HCT116	84	51
GXA_3013	> 30000	3280
COLO-320	> 30000	2110
RXF_393	15100	869
SISO	> 30000	715
GXF_23132	> 30000	20600
U-2197	> 30000	2770
SW948	> 30000	3000
NOMO-1	> 30000	10
MOLP-2	> 30000	3650
MEXF_1539	3	39
MEXF_276	8	38
LOVO	> 30000	3680
LIM2405	5.96	31.6
LXFA_586	> 30000	106
A-431	563	30

Test System	absolute IC70 (GDC-0623) [nM]	absolute IC70 [1] [nM]
MFE-319	5170	370
HNXF_1859	117	116
OVCAR-8	> 30000	2800
PC-3M	> 30000	161
EM-2	192	277
SR	> 30000	13
SNB-75	2680	1100
SW1463	14.3	323
SNU-878	18800	9320
SNU-16	> 30000	15400
LXFA_526	1320	739
EFO-27	> 30000	724
PXF_1118	> 30000	1550
SiHa	> 30000	4800
TFK-1	> 30000	3450
Hs 729	> 30000	8020
RXF_1220	> 30000	4720
KM12	15100	386
RKO	125	21
SNU-899	35	515
KU-19-19	22	56
T24	46	353
OVXF_899	14700	457
MKN45	79	489

— the supplement of paper PMC10599287
